In US11268145B2, “Methods for treating Cushing's syndrome” (priority 2015, dated 2022):

Test system: FKBP5 gene expression
Experiment: FKBP5 gene expression in whole blood of healthy subjects after GR agonist, with or without GRA
Format: in vivo, human
Settings: GAPDH normalized
Experimental: FIG. 1: depicts a study scheme for examining the expression level of the gene FKBP5, which encodes the FKBP5 protein, in response to administration of a GR modulator. In this scheme, healthy subjects are administered a GR agonist, followed by co-administration of a GR agonist and a GR antagonist (GRA). Blood samples are obtained from 10 subjects before each dose and at various time points after each dose. FKBP5 expression levels are measured before dosing on each day, and at selected times after dosing on each day.
Blood samples are taken before each dose and at various time-points after each dose. The study scheme is depicted in FIG. 1. The expression level of the FKBP5 gene is measured in the pre-administration samples obtained before dosing on each day and in the post-administration samples obtained at various time points after dosing on each day. Raw expression level data in the samples are normalized against the expression level of the glyceraldehyde phosphate dehydrogenase (GAPDH) gene in each sample.

In the case of `Cn1cc(S(=O)(=O)N2CCC3=Cc4c(cnn4-c4ccc(F)cc4)C[C@]3(C(=O)c3cc(C(F)(F)F)ccn3)C2)cn1` [CORT125134], the “change in the fold change in FKBP5 expression” value (prednisone 25 mg with CORT125134 500 mg) is reported as “significant decrease”.

`CC#C[C@]1(O)CC[C@H]2[C@@H]3CCC4=CC(=O)CCC4=C3[C@@H](c3ccc(N(C)C)cc3)C[C@@]21C` [mifepristone] was tested, and the “change in the fold change in FKBP5 expression” value (prednisone 25 mg with mifepristone 600 mg) was “significant decrease”.
